Where two headings read alike, the source gives them in different places.

This series is described as follows: Phase 1 single escalating intravenous dose study, safety and pharmacokinetics. The format is in vivo, human. As to conditions: for C5 / concentration at 5 min: concentration at 5 minutes; for concentration at 5 min: male, human, whole blood, read-out: C5. How it is done: In the present, first-time-in-man study, the safety and pharmacokinetics of zotarolimus were investigated following intravenous bolus administration of zotarolimus over a 100 to 900 μg dose range. The intravenous bolus dose administration would mimic the most rapid unexpected release of zotarolimus from drug-coated stents in vivo.
This was a Phase 1, single escalating dose, double-blind, randomized, placebo-controlled, single-center study. Sixty (60) adult healthy males were divided into 5 IV dose groups of 100, 300, 500, 700, and 900 μg.
Subjects were randomly assigned to receive a single intravenous dose of zotarolimus or a matching intravenous placebo under fasting conditions, as shown in the dosing scheme shown in Table 9.
Higher doses were administered after evaluating the safety data from the preceding lower dose groups. The treatment groups were separated by at least 7 days. For safety reasons, each treatment group was divided into two cohorts of six subjects and the doses of the two cohorts of a group were separated by at least 1 day.
Doses were administered as IV bolus over 3 minutes, with 8 subjects. Four subjects received zotarolimus and 4 subjects received placebo in each dose group. Blood was sampled for 168 hours and concentrations of zotarolimus measured using LC-MS/MS with a LOQ of 0.20 ng/mL
Seven (7)-mL blood samples were collected by venipuncture into evacuated collection tubes including edetic acid (EDTA) prior to dosing (0 hour) and at 0.083 (5 min), 0.25, 0.5, 1, 2, 4, 8, 12, 16, 24, 36, 48, 72, 96, 120, 144, and 168 hours after dosing on Study Day 1.
Blood concentrations of zotarolimus were determined using a validated liquid/liquid extraction HPLC tandem mass spectrometric method LC-MS/MS). […] AU calibration curves had coefficient of determination (r^2) values greater than or equal to 0.9923.
Safety was evaluated based on adverse event, physical examination, vital signs, ECG, injection site and laboratory tests assessments.
Pharmacokinetic parameter values of zotarolimus were estimated using noncompartmental methods.
To investigate the questions of dose proportionality and linear pharmacokinetics, an analysis of covariance (ANCOVA) was performed. Subjects were classified by dose level, and body weight was a covariate. The variables analyzed included β, Vdβ, dose-normalized C5, and logarithms of dose-normalized AUC0-last and dose-normalized AUC0-inf. The primary test of the hypothesis of invariance with dose was a test on dose-level effects with good power for a monotonic function of dose. In addition, the highest and lowest dose levels were compared within the framework of the ANCOVA.

The mark [1] stands for this setting: 100 μg single IV bolus, healthy males, blood.
Where [2] appears, read: 300 μg single IV bolus, healthy males, blood.
Setting [3] is: 500 μg single IV bolus, healthy males, blood.
Setting [4] is: 700 μg single IV bolus, healthy males, blood.
Where [5] appears, read: 900 μg single IV bolus, healthy males, blood.

Take `CO[C@H]1C[C@@H]2CC[C@@H](C)[C@@](O)(O2)C(=O)C(=O)N2CCCC[C@H]2C(=O)O[C@H]([C@H](C)C[C@@H]2CC[C@H](n3cnnn3)[C@H](OC)C2)CC(=O)[C@H](C)/C=C(\C)[C@@H](O)[C@@H](OC)C(=O)[C@H](C)C[C@H](C)/C=C/C=C/C=C/1C` [zotarolimus]: under setting [1], the C5 was found to be 13.48 ng/mL and the concentration at 5 min worked out at 13.5 ± 2.87 ng/mL. Besides, under setting [2], the C5 is listed as 36.71 ng/mL and the concentration at 5 min came to 36.7 ± 9.82 ng/mL. Also, under setting [3], the C5/Dose worked out at 0.11 ± 0.0005 ng/mL/µg and the “β (elimination rate constant)” value was determined as 0.017 ± 0.003 h⁻¹. Under setting [4], the CL was 3.18 L/h, the C5 was found to be 88.73 ng/mL and the concentration at 5 min worked out at 88.7 ± 5 ng/mL. Further, under setting [5], the C5 was 110.78 ng/mL and the concentration at 5 min was found to be 111 ± 15.9 ng/mL. Moreover, the tolerability entry (single IV doses of 100 to 900 μg, healthy males) was “well tolerated at all doses”. Besides, for the setting “single IV doses of 100 to 900 μg, reported by two or more subjects in any one treatment group”, the “most common treatment-emergent adverse events” value is “injection site reaction and pain”. Under “with respect to C5 and AUC0-inf, IV”, the “dose proportionality of pharmacokinetics” value was “dose-proportional over the 100-900 μg dose range”.

The values above are taken from patent US8394398B2 (Abbott Laboratories, priority 1997, dated 2013).
